Measurements from the supplement of paper PMC10307832.

How the values were obtained:
Experiment in all cases: relative viability (nuclei count vs DMSO), 5 days (fraction); higher = more cells survive
Salubrinal + OSI-027 = compound: O=C(/C=C/c1ccccc1)NC(NC(=S)Nc1cccc2cccnc12)C(Cl)(Cl)Cl [Salubrinal] + COc1cccc2cc(-c3nc([C@H]4CC[C@H](C(=O)O)CC4)n4ncnc(N)c34)[nH]c12 [OSI-027] (partner 0.5 µM)
Method in brief: (§1)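 Lung cancer cell lines in 1536-well plates got either a single drug or a fixed anchor-drug dose together with five library-drug doses (not always all listed) in √10 steps, by pin tool, on the day after seeding. Nuclei were counted after 5 days, and relative viability is the treated-to-vehicle ratio of nuclei counts. Values are medians of duplicate plates.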

[1] = compound: Cc1ccc2nc(NCCN)c3ncc(C)n3c2c1 + C[C@@H](Oc1cc(-c2cnn(C3CCNCC3)c2)cnc1N)c1c(Cl)ccc(F)c1Cl [Crizotinib] (partner 1 µM)
Method in brief: as §1

[2] = compound: Cc1ccc2nc(NCCN)c3ncc(C)n3c2c1 + Nc1nc2[nH]cc(CCc3ccc(C(=O)N[C@@H](CCC(=O)O)C(=O)O)cc3)c2c(=O)[nH]1 [Pemetrexed] (partner 0.2 µM)
Method in brief: as §1

[3] = compound: Cc1ccc2nc(NCCN)c3ncc(C)n3c2c1 + CCNC(=O)c1noc(-c2cc(C(C)C)c(O)cc2O)c1-c1ccc(CN2CCOCC2)cc1 [Luminespib] (partner 0.01 µM)
Method in brief: as §1

Row | Cell Line | relative viability (Salubrinal + OSI-027; first compound 0.08 µM) | relative viability (Salubrinal + OSI-027; first compound 0.253 µM) | relative viability (Salubrinal + OSI-027; first compound 0.8 µM) | relative viability (Salubrinal + OSI-027; first compound 2.53 µM) | relative viability (Salubrinal + OSI-027; first compound 8 µM) | relative viability ([1]; first compound 0.04 µM) | relative viability ([1]; first compound 0.1265 µM) | relative viability ([1]; first compound 0.4 µM) | relative viability ([1]; first compound 1.265 µM) | relative viability ([1]; first compound 4 µM) | relative viability ([2]; first compound 0.04 µM) | relative viability ([2]; first compound 0.1265 µM) | relative viability ([2]; first compound 0.4 µM) | relative viability ([2]; first compound 1.265 µM) | relative viability ([2]; first compound 4 µM) | relative viability ([3]; first compound 0.04 µM) | relative viability ([3]; first compound 0.1265 µM) | relative viability ([3]; first compound 0.4 µM) | relative viability ([3]; first compound 1.265 µM) | relative viability ([3]; first compound 4 µM)
1 | NCI-H650 | 0.584 | 0.554 | 0.576 | 0.629 | 0.452 | 0.855 | 0.608 | 0.718 | 0.583 | 0.672 | 0.999 | 0.976 | 0.827 | 1.01 | 0.851 | 0.891 | 0.688 | 0.583 | 0.602 | 0.698
2 | NCI-H838 | 0.327 | 0.402 | 0.372 | 0.4 | 0.407 | 0.844 | 0.777 | 0.795 | 0.789 | 0.762 | 0.277 | 0.247 | 0.252 | 0.302 | 0.419 | 0.362 | 0.344 | 0.324 | 0.3 | 0.258
3 | COR-L 105 | 0.74 | 0.632 | 0.758 | 0.735 | 0.613 | 0.797 | 0.721 | 0.887 | 0.704 | 0.422 | 1.19 | 1.21 | 0.996 | 1.23 | 1.11 | 0.921 | 0.529 | 0.603 | 0.57 | 0.497
4 | NCI-H2405 | 0.614 | 0.643 | 0.664 | 0.637 | 0.599 | 0.951 | 0.827 | 0.853 | 0.838 | 0.791 | 1.17 | 1.01 | 1 | 0.905 | 0.798 | 0.841 | 0.631 | 0.732 | 0.563 | 0.595
5 | NCI-H661 | 0.781 | 0.58 | 0.77 | 0.705 | 0.603 | 1.05 | 1.07 | 0.931 | 1.07 | 0.959 | 0.909 | 0.949 | 0.958 | 0.891 | 0.868 | 0.932 | 0.94 | 0.929 | 0.98 | 0.8
6 | NCI-H1915 | 0.628 | 0.609 | 0.716 | 0.682 | 0.637 | 0.823 |  | 0.816 | 0.868 | 0.914 | 0.511 | 0.502 | 0.463 | 0.519 | 0.442 | 0.721 | 0.783 |  | 0.598 | 0.636
7 | CAL-12T | 0.444 | 0.541 | 0.606 | 0.542 | 0.454 | 0.787 | 0.716 | 0.725 | 0.603 | 0.344 | 1.42 | 1.13 | 1.15 | 1.04 | 1.03 | 0.642 | 0.522 | 0.715 | 0.534 | 0.214
8 | LXF-289 | 0.784 | 0.647 | 0.953 | 0.847 | 0.69 | 0.806 | 0.834 | 0.842 | 0.857 | 0.856 | 0.905 | 0.876 | 0.87 | 0.865 | 0.933 | 0.633 | 0.816 | 0.653 | 0.706 | 0.618
9 | NCI-H460 | 1.21 | 0.406 | 1.03 | 0.514 | 0.317 | 0.98 | 0.923 | 0.952 | 0.851 | 0.64 | 0.0612 | 0.0659 | 0.065 | 0.0654 | 0.0753 | 0.0414 | 0.0267 | 0.0351 | 0.0331 | 0.0182
10 | NCI-H2009 | 0.63 | 0.613 | 0.659 | 0.6 | 0.498 | 1.06 | 1.06 | 1.14 | 1.04 | 0.784 | 1.02 | 0.985 | 0.966 | 0.951 | 0.926 | 1.03 | 1 | 1.05 | 1.01 | 0.792
11 | 201T | 0.933 | 0.799 | 0.863 | 0.782 | 0.732 | 1.07 | 1.06 | 1.07 | 1.09 | 1.06 | 0.372 | 0.321 | 0.323 | 0.276 | 0.343 | 1.1 | 1.05 | 1.06 | 1.12 | 1.07
12 | NCI-H23 | 0.59 | 0.573 | 0.647 | 0.539 | 0.606 | 0.731 | 0.549 | 0.554 | 0.437 | 0.447 | 0.666 | 0.691 | 0.741 | 0.641 | 0.581 | 0.207 | 0.227 |  | 0.201 | 0.217
13 | LOU-NH91 | 0.721 | 0.708 | 0.744 | 0.737 | 0.688 | 0.753 | 0.714 | 0.748 | 0.727 | 0.749 | 0.411 | 0.344 | 0.361 | 0.465 | 0.495 | 0.342 | 0.31 | 0.31 | 0.36 | 0.318
14 | NCI-H2085 | 0.793 | 0.629 | 0.848 | 0.712 | 0.717 | 1.01 | 0.77 | 0.879 | 0.848 | 0.87 | 0.87 | 0.934 | 0.855 | 0.892 | 1 | 0.492 | 0.463 | 0.446 | 0.442 | 0.393
15 | COR-L23 | 0.868 | 0.547 | 1.1 | 0.794 | 0.71 | 0.737 | 0.608 | 0.628 | 0.572 | 0.541 | 0.191 | 0.191 | 0.204 | 0.218 | 0.208 | 0.682 | 0.644 | 0.763 | 0.47 | 0.625
16 | BEN | 0.322 | 0.407 | 0.318 | 0.309 | 0.324 | 0.944 | 0.59 | 0.872 | 0.798 | 0.842 | 0.978 | 0.894 | 0.817 | 0.712 | 0.801 | 0.337 | 0.295 | 0.425 | 0.179 | 0.688
